Measurements published in patent publication US4828849A, “Surfactant inhibition of dental plaque” (Warner-Lambert Company, priority 1988, dated 1989).
Structures can show the parent of a compound that is named as a salt.

Key:
glucosyl transferase = assay: Assay for the inhibition of glucosyl transferase activity (14C-sucrose incorporation into glucan); type: biochemical; conditions: 50% inhibition of glucosyl transferase activity; 0.05M sodium acetate buffer, pH 5.5, 37° C.; read-out: 50% Inhibition Concentration
Description: An assay for the inhibition of glucosyl transferase activity was developed wherein the enzyme was incubated for 10 minutes with varying concentrations of the surfactant in 0.05M sodium acetate buffer, pH 5.5 at 37° C., with agitation. The reaction was then started by adding the remainder of the assay mixture (to a final volume of 450 mcl) consisting of: 2.5 μCi uniformly-labelled 14C -sucrose, 1% unlabelled sucrose, sodium fluoride and Dextran T10 in acetate buffer. Samples were removed at timed intervals, spotted to filters and the filters were treated with methanol. Radioactivity incorporated into glucan was plotted versus time as compared to a control preparation. By this procedure the concentration of test reagent necessary to achieve 50% inhibition of glucosyl transferase activity was determined.

[1] = test system: Streptococcus sanguis G9B, S. mutans Ingbritt and Actinomyces viscosus T14 V; assay: Adherence assay: inhibition of initial adherence of bacteria to saliva-coated hydroxyapatite beads; type: cell-based; conditions: 50% inhibition of bacterial adherence to saliva-coated hydroxyapatite (HA) beads, determined graphically; surfactant dissolved in water; 37° C.; read-out: 50% Inhibition Concentration
Text: S. sanguis G9B adheres well to saliva-coated hydroxyapatite. This attachment, in vivo, occurs within minutes. As plaque matures, the percentage of S. sanguis decreases, but its actual numbers remain high. In vivo and in vitro studies have shown S. sanguis to interact with other oral bacteria including S. mutans and Actinomyces viscosus. S. mutans has also been implicated as a cause of dental caries. Stock cultures were kept both lyophillized and frozen in Brain Heart Infusion Broth (BHI, Difco Laboratories) at -70° C.; the latter being used to inoculate starter cultures. After overnight incubation at 37° C, a 0.5% inoculum was used to inoculate 100 ml of BHI which was subsequently incubated 20 hours at 37° C. The cells were radioactivately labeled by adding tritiated thymidine (methyl-3H) to a final specific activity of 2 μCi/ml. After incubation, the cells were harvested by centrifugation (16,320× g, 15 minutes, 4° C.), washed three times with buffered KCl (2 mM potassium phosphate buffer, 1 mM CaCl2, and 5 mM KCl, pH 6.0) (Ref. 8), and resuspended to a turbidity of 300 Klett units (Klett-Summerson colorimeter; blue, #47 filter). This bacterial stock cell suspension was then diluted with buffered KCl to produce a series of cell suspensions ranging from 1.6 to 300 Klett units. Duplicate 50 ul aliquots of each cell suspension were counted in Aquasol-2 to determine their specific activities.
A. viscosus T14 V was grown for 48 hours at 37° C. under anaerobic conditions in tryptic soy broth (TSB) containing glucose.
Whole, paraffin-stimulated saliva was collected into ice-chilled tubes and clarified by centrifugation ([…], 15 minutes, 4° C.). The supernatant fluids were removed and aliquots were stored frozen at -20° C. until used. A pool of saliva from several individuals was used routinely; and was collected after a 10 hour fast with no food or oral hygiene on the morning of collection.
Spheroidal hydroxyapatite beads (manufactured by BDH Chemicals, Poole, England and obtained from Gallard-Schlessinger Co., Carle Place, NY) were distributed into a 12×75 mm polystyrene test tube (Walter Sarstedt, Inc., Princeton, N.J.) and mixed with either 1 ml of saliva or buffered KCl for 1.5 hours at ambient temperature with rotation (20 rpm). Each tube contained 40±2 mg of HA beads, distributed using a calibrated stainless steel ladle.
The cells were radioactively labelled by addition of 1.5 μCi/ml methyl-^3 H thymidine to the cell suspension media. The hydroxyapatite (HA) beads were coated with either a surfactant or a control or saliva and rotated for 30 minutes at ambient temperature. The excess agent or saliva was removed by washing with buffer. Radioactively-labelled cells suspended in either buffer or varying concentrations of the surfactant were added to the beads. The beads and cells were incubated at 37° C., 10 minutes for the streptococcal strains and 15 minutes for the actinomycete, after which the beads were washed to remove the unbound cells and the radioactivity bound to them was determined by scintillation counting. S. mutans Ingbritt was also assayed for sucrose-mediated adherence by addition of 1% sucrose to the cells and surfactant mixture. The concentration to effect 50% inhibition of bacterial adherence to the HA beads was determined graphically.
Several surfactant agents according to the invention dissolved in water were employed in the assay.

N--methyl-N--cocoyltaurine sodium salt [Surfactant 3]
IC50 (glucosyl transferase): 1000 µM
IC50 [1]: 300 µM

Cocoylisethionate, sodium salt [Surfactant 6]
IC50 [1]: 100 µM

CCCCCCCCCCCCCCCC(=O)N(C)CCS(=O)(=O)O [Surfactant 1, N--methyl-N--palmitoyltaurine, sodium salt]
IC50 (glucosyl transferase): 1000 µM
IC50 [1]: 250 µM

Cocamidopropylhydroxysultaine [Surfactant 4]
IC50 [1]: 15000 µM

CCCCCCCC/C=C\CCCCCCCC(=O)N(C)CCS(=O)(=O)O [Surfactant 2, N--methyl-N--oleolytaurine sodium salt]
IC50 (glucosyl transferase): 1000 µM
IC50 [1]: 350 µM

Cocamidopropylhydroxysultaine, potassium salt [Surfactant 5]
IC50 [1]: 25000 µM
